Measurements: patent US8338476B2, “Compositions and methods of sensitizing methicillin resistant Staphylococcus aureus to beta-lactam antibiotics” (priority 2005, dated 2012)
Where two headings read alike, the source gives them in different places.

Experiments:
Format in all cases: cell-based, Staphylococcus aureus
[1] = tested on: mid-logarithmic EMRSA-16 cells; assay: Binding of catechins to S. aureus cells (HPLC assay of Kajiya et al); conditions: for fraction of the catechin pool bound to / associated with the cells: catechin alone, 20 min incubation at 35° C.
Excerpt: As S. aureus membranes are uniquely composed of phosphatidylglycerol (63-74%), lysylphosphatidylglycerol (17-22%), and cardiolipin (5-15%), the inventors determined the capacity of non-galloylated catechins to enhance ECG binding to S. aureus using the HPLC assay described by Kajiya et al (Kajiya, K., S. Kumazawa, and T. Nakayama. 2001. Steric effects on the interaction of tea catechins with lipid bilayers. Biosci. Biotechnol. Biochem. 65:2638-2643). EC, EGC, ECG and EGCG were provided by the Tokyo Food Techno Co. Ltd., Tokyo, Japan. S. aureus BB568 is a constitutive PBP2a producer (provided by B. Berger-Bächi, University of Zürich), and EMRSA-15 and EMRSA-16 were clinical isolates from the Royal Free Hospital, London. Binding of ECG to mid-logarithmic EMRSA-16 cells was enhanced by EC at concentrations of 25 mcg/ml. 13% of the EC pool bound after 20 min incubation at 35° C., and 22% of ECG was associated with the cells. In the presence of EC, ECG binding rose to 41%. […] EC appears, therefore, to facilitate ECG binding to staphylococcal cells as well as to PC and PE liposomes.

EMRSA-16 = assay: Checkerboard MIC assay, sensitization to oxacillin; conditions: for MIC: Staphylococcus aureus
Protocol: MICs were then recorded and the experiments were repeated in the presence of the non-galloylated catechin epicatechin at varying concentrations between 0 mcg/ml and 50 mcg/ml.
(§1) Checkerboard MIC assays were performed in 96-well microtiter trays with an inoculum of about 10^4 CFU in 200 μl of Mueller-Hinton broth (Oxoid, Basingstoke, United Kingdom) supplemented with 2% NaCl. MIC values were obtained after incubation at 35° C. for 24 h. S. aureus ATCC29213 was used as the standard susceptible strain. Fractional inhibitory concentration (FIC) indices for triple combinations were calculated as follows: ΣFIC=FICOXA+FICB+FICC=[C^combOXA/MIC^OXA]+[C^combB/MICB]+[C^combC/MICC], where C^combB, and C^combc are the concentrations of catechins tested. […] For combinations of two compounds the term (C^combC/MICC) was omitted. An FIC index of ≦0.5 indicates synergy.

[2] = tested on: EMRSA-16, EMRSA-15 and BB568; assay: Checkerboard MIC assay, results stated jointly for the three isolates
Protocol: as §1

S. aureus BB568 = assay: Checkerboard MIC assay, sensitization to oxacillin; conditions: for MIC: Staphylococcus aureus
Protocol: as §1

EMRSA-15 = assay: Checkerboard MIC assay, sensitization to oxacillin
Protocol: as §1

## Oc1cc(O)c2c(c1)O[C@H](c1ccc(O)c(O)c1)[C@H](O)C2 [EC, epicatechin]
[1]; 20 min at 35° C.
  EC binding in the presence of ECG: 35.5%
[1]
  fraction of the catechin pool bound to / associated with the cells: 13%

## O=C(O[C@@H]1Cc2c(O)cc(O)cc2O[C@@H]1c1ccc(O)c(O)c1)c1cc(O)c(O)c(O)c1 [ECG, epicatechin gallate]
EMRSA-16; ECG ≧12.5 mg/ml with both EC and EGC ≧50 mg/ml, no oxacillin
  growth of EMRSA-16 in the absence of oxacillin: inhibited the growth
[1]; EC 25 mcg/ml, 20 min at 35° C.
  ECG binding in the presence of EC: 41%
[1]
  fraction of the catechin pool bound to / associated with the cells: 22%

## Oc1cc(O)c2c(c1)O[C@H](c1cc(O)c(O)c(O)c1)[C@H](O)C2 [EGC, epigallocatechin]
[2]; FIC index ≦0.5 indicates synergy
  FIC index, triple combination with oxacillin and ECG: strong synergy
[2]; in combination with ECG and oxacillin
  effect on the capacity of ECG to reduce oxacillin resistance: markedly enhanced
[2]; in combination with EGCG and oxacillin, less than with ECG
  enhancement of EGCG-mediated sensitization to oxacillin: could enhance sensitization
[2]; without ECG
  effect of the non-galloylated catechin alone on the MIC of oxacillin: unable to reduce the MIC of oxacillin

## O=C(O[C@@H]1Cc2c(O)cc(O)cc2O[C@@H]1c1cc(O)c(O)c(O)c1)c1cc(O)c(O)c(O)c1 [EGCG, epigallocatechin gallate]
[2]; ECG 3.12 mg/ml + EGCG 25 mg/ml, strain not stated
  reduction of the oxacillin MIC by EGCG in the presence of ECG: twofold
[2]; EGCG without ECG, effect much less pronounced than with ECG
  sensitization to oxacillin by EGCG: able to sensitize
EMRSA-16; ECG 0-12.5 mcg/ml, added catechin 0-50 mcg/ml
  effect on oxacillin MIC when added to ECG: substantially no significant and synergistic effect
EMRSA-16; ECG 12.5 mg/ml
  effect of EGCG on the capacity of ECG to reduce the oxacillin MIC: compromised the capacity of ECG to reduce the MICs
S. aureus BB568; ECG 12.5 mg/ml
  effect of EGCG on the capacity of ECG to reduce the oxacillin MIC: compromised the capacity of ECG to reduce the MICs

## Cc1onc(-c2ccccc2)c1C(=O)N[C@@H]1C(=O)N2[C@@H]1SC(C)(C)[C@@H]2C(=O)O [oxacillin]
EMRSA-16; ECG 12.5 mg/ml
  oxacillin MIC in the presence of ECG: below the oxacillin breakpoint
EMRSA-16; read-out: oxacillin MIC in the presence of ECG and EC, ECG 3.12 mg/ml + EC 25 mg/ml
  MIC: 2 µg/mL
EMRSA-16; read-out: oxacillin MIC in the presence of ECG and EC, ECG 3.12 mcg/ml + EC 6.25 mcg/ml
  MIC: 8 µg/mL
EMRSA-15; ECG 3.12 mg/ml
  oxacillin MIC in the presence of ECG: a similar effect was achieved
EMRSA-15; Staphylococcus aureus, 24 h, read-out: MIC of oxacillin
  MIC: 16 µg/mL
S. aureus BB568; ECG 12.5 mg/ml
  oxacillin MIC in the presence of ECG: below the oxacillin breakpoint
S. aureus BB568; BB568, read-out: oxacillin MIC in the presence of ECG and EC
  MIC: 8 µg/mL
S. aureus BB568; BB568, read-out: oxacillin MIC in the presence of ECG and EC, ECG 3.12 mg/ml + EC 25 mg/ml
  MIC: 2 µg/mL
